Results on 14 molecules are retold here after ChEMBL document CHEMBL1153899, “Discovery of benzothiazole derivatives as efficacious and enterocyte-specific MTP inhibitors” (Bioorg Med Chem Lett, 2009).

Assay [1] in a line: Inhibition of MTP from dog liver microsomes by scintillation counting. Details: species or system Canis lupus familiaris, Microsome.
The subject of assay [2] is Mus musculus. In words: Decrease in total food intake in 3-day high fat diet fed C57BL/6 mouse at 10 mg/kg, po daily for 3 days. The assay is classed as functional.
For assay [3], the system named is Mus musculus. In words: Decrease in plasma triglyceride level in […] C57BL/6 mouse at 10 mg/kg, po daily for 3 days measured after 6 hrs. The assay is classed as functional.
The subject of the next assay is HepG2. In words: Inhibition of apoB secretion in human HepG2 cells after 40 hrs by ELISA. As to conditions: HepG2, 40 h. The assay is classed as functional, cell-based.
In assay [4] the test system is Mus musculus. In words: Decrease in body weight in […] at 10 mg/kg, po daily for 3 days. The assay is classed as functional, C57BL/6.
In assay [5] the test system is Mus musculus. In words: Increase in peptide YY level in 3-day high fat diet fed C57BL/6 mouse at 10 mg/kg, po daily for 3 days. The assay is classed as functional, organism-based. The arrangement: dose 10 mg/kg.

Activity calls are given as the source filed them. No cut-off for these calls is given here.

Regarding `COc1cccc(C(=O)Nc2ccc3nc(C(=O)N[C@H](C(=O)N(C)Cc4ccc(F)cc4)c4ccccc4)sc3c2)c1-c1ccc(C(C)(C)C)cc1`, the concentration for half-maximal inhibition (IC50) in assay [1] was 7.9 nM; in the assay on HepG2 it was 2.4 nM. Further, the result in the assay with Mus musculus [2], in the assay with Mus musculus [3], in the assay with Mus musculus [4] and in the assay with Mus musculus [5] was Active.

Take `CN(Cc1ccc(F)cc1)C(=O)[C@@H](NC(=O)c1nc2ccc(NC(=O)c3ccccc3-c3cn4ccccc4n3)cc2s1)c1ccccc1`: the concentration for half-maximal inhibition (IC50) in assay [1] was 13 nM; in the assay on HepG2, 4.2 nM. Moreover, the result in the assay with Mus musculus [2], with Mus musculus [3], with Mus musculus [4] and in the assay on Mus musculus [5] was inactive.

Consider `CC(C)(C)c1ccc(-c2ccccc2C(=O)Nc2ccc3nc(C(=O)N[C@H](C(=O)N4CCC(F)(F)C4)c4ccccc4)sc3c2)cc1`, for which the IC50 in the assay on HepG2 came to 8.8 nM.

As for `Cc1csc2nc(-c3ccccc3C(=O)Nc3ccc4nc(C(=O)N[C@H](C(=O)N(C)Cc5ccc(F)cc5)c5ccccc5)sc4c3)cn12`, the IC50 in assay [1] came out at 16.9 nM; in the assay on HepG2, 6.9 nM. The outcome with Mus musculus [2], with Mus musculus [3], with Mus musculus [4] and in the assay on Mus musculus [5] was inactive.

In the case of `CN(Cc1ccc(F)cc1)C(=O)[C@@H](NC(=O)c1nc2ccc(NC(=O)c3ccccc3-c3ccc(C(C)(C)C)cc3)cc2s1)c1ccccc1`, the 50% inhibitory concentration (IC50) in assay [1] was found to be 3 nM; with HepG2, 2.7 nM. Besides, the outcome with Mus musculus [2], in the assay with Mus musculus [3], in the assay with Mus musculus [4] and in the assay with Mus musculus [5] was Active.

Regarding `CC(C)(C)c1ccc(-c2ccccc2C(=O)Nc2ccc3nc(C(=O)N[C@H](C(=O)N4CCCC4)c4ccccc4)sc3c2)cc1`, the results for the IC50 (in assay [1]; with HepG2) were 2.6 nM and 1.5 nM, respectively.

For `CN(Cc1ccc(F)cc1)C(=O)[C@@H](NC(=O)c1nc2ccc(NC(=O)c3ccccc3-c3cn4ccsc4n3)cc2s1)c1ccccc1`, the IC50 in assay [1] stood at 14.8 nM; in the assay on HepG2, 23.7 nM. Further, the result in the assay on Mus musculus [2], in the assay on Mus musculus [3], with Mus musculus [4] and in the assay on Mus musculus [5] was inactive.

In turn, `CC(C)(C)c1ccc(-c2ccccc2C(=O)Nc2ccc3nc(C(=O)N[C@@H](C(=O)N4CCCC4)c4ccccc4)sc3c2)cc1` returned a 50% inhibitory concentration (IC50) in the assay with HepG2 of 34.8 nM.

`CCCCN(C)C(=O)[C@@H](NC(=O)c1nc2ccc(NC(=O)c3ccccc3-c3ccc(C(C)(C)C)cc3)cc2s1)c1ccccc1`: the IC50 came to 9.5 nM in assay [1] and 6.5 nM with HepG2.

With `CN(Cc1ccc(F)cc1)C(=O)[C@@H](NC(=O)c1nc2ccc(NC(=O)c3ccccc3-c3ccc(C(F)(F)F)cc3)cc2s1)c1ccccc1`, the IC50 with HepG2 worked out at 17.3 nM.

Turning to `Cc1cccc(C(=O)Nc2ccc3nc(C(=O)N[C@H](C(=O)N(C)Cc4ccc(F)cc4)c4ccccc4)sc3c2)c1-c1ccc(C(C)(C)C)cc1`, the IC50 was 4.7 nM in assay [1] and 2.9 nM in the assay with HepG2. The result in the assay on Mus musculus [2], with Mus musculus [3], with Mus musculus [4] and with Mus musculus [5] was Active.

For the molecule `CCCCCNC(=O)[C@@H](NC(=O)c1nc2ccc(NC(=O)c3ccccc3-c3ccc(C(C)(C)C)cc3)cc2s1)c1ccccc1`, the half-maximal inhibitory concentration (IC50) in assay [1] was 8.4 nM; in the assay on HepG2 it was 3.1 nM.

In the case of `CN(Cc1ccccc1)C(=O)[C@@H](NC(=O)c1cc2cc(NC(=O)c3ccccc3-c3ccc(C(F)(F)F)cc3)ccc2n1C)c1ccccc1` [DIRLOTAPIDE], the results for the half-maximal inhibitory concentration (IC50) (in assay [1]; in the assay on HepG2) were 2 nM and 4 nM, respectively.

Consider `CN(Cc1ccc(F)cc1)C(=O)[C@@H](NC(=O)c1nc2ccc(NC(=O)c3ccccc3-c3nc(C(C)(C)C)cs3)cc2s1)c1ccccc1`, for which the IC50 in assay [1] is 4.6 nM; in the assay with HepG2, 4 nM. The outcome in the assay with Mus musculus [2], in the assay with Mus musculus [3], in the assay with Mus musculus [4] and with Mus musculus [5] was inactive.
